The source made the active and inactive calls.
Tests used:
[1] = target: E3 ubiquitin-protein ligase XIAP (Homo sapiens, UniProt P98170); test: Counter Screen using XIAP-Bir3 for Chemical Antagonists of Bir1/2 domains of IAP-family anti-apoptotic proteins. [Related pubchem assays (depositor defined):AID1018, AID1449, AID1514, AID1638, AID1749, AID1750, AID488957, AID488963]
[2] = target: Luciferin 4-monooxygenase (Photinus pyralis, UniProt P08659); test: inhibition of purified Photinus pyralis luciferase – biochemical, luminescence, dose response (AID 1891)
Estrogen receptor = target: T1, Estrogen receptor (Homo sapiens, UniProt P03372);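 also: potency for inhibiting coactivator peptide recruitment to the receptor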
T1 sequence (P03372 whole entry): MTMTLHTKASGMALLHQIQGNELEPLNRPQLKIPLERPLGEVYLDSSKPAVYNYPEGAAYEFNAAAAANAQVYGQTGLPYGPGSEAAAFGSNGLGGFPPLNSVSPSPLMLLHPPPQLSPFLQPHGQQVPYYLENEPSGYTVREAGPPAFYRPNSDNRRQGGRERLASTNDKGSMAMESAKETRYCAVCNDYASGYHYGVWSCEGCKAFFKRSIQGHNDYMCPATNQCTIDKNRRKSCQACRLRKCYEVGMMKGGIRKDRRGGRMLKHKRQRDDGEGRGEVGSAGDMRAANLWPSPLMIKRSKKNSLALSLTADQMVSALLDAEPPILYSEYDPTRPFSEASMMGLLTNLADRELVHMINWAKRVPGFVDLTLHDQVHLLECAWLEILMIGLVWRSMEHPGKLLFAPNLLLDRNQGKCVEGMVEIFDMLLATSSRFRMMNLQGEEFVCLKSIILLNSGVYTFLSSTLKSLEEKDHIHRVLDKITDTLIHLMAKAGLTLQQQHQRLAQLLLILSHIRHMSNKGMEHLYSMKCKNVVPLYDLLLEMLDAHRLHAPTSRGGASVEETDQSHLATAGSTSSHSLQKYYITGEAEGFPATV

[3] = Luminescence Cell-Based Dose Confirmation HTS to Identify Inhibitors of Platelet Dense Granule Release. [Related pubchem assays: 1663 (Primary HTS), 1678 (Summary of Project)]; assay type: functional
[4] = target: G-protein coupled receptor 55 (Homo sapiens, UniProt Q9Y2T6); test: selective activators of receptor GPR55 – imaging, U2OS cells, beta-arrestin-GFP redistribution, primary screen (AID 1961); assay type: functional
[5] = target: DNA dC->dU-editing enzyme APOBEC-3A (Homo sapiens, UniProt P31941); test: A3A deaminase inhibition for selectivity – biochemical, dose response (AID 504722); assay type: functional
[6] = target: DNA dC->dU-editing enzyme APOBEC-3G (Homo sapiens, UniProt Q9HC16); test: Dose Response confirmation of small molecule APOBEC3G DNA Deaminase Inhibitors via a fluorescence-based single-stranded DNA deaminase assay. [Related pubchem assays (depositor defined):AID493012, AID493028]; assay type: functional
Bcl-2-related protein A1 = target: T2, Bcl-2-related protein A1 (Mus musculus, UniProt Q07440); assay type: functional;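 also: confirmatory dose–response counterscreen on Bfl-1, used to check hits from a UBC13 polyubiquitin inhibitor campaign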
T2 sequence (Q07440 whole entry): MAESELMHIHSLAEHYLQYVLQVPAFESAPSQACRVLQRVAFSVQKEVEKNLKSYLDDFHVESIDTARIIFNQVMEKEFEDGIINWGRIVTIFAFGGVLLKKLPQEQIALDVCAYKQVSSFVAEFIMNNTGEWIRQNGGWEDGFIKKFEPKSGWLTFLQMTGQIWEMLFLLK

[7] = target: T3, Ubiquitin-conjugating enzyme E2 N (Homo sapiens, UniProt P61088); assay type: functional
T3 sequence (P61088 whole entry): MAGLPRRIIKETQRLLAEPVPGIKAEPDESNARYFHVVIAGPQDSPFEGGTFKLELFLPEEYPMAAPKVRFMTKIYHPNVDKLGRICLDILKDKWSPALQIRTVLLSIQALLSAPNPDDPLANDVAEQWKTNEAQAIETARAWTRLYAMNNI

[8] = target: T3, Ubiquitin-conjugating enzyme E2 N; assay type: functional; remark: listed apart in the source
Hexokinase = target: T4, Hexokinase (Trypanosoma brucei, UniProt Q38C41); test: Confirmation assay for inhibitors of Trypanosoma brucei hexokinase 1-Analogue-first series. [Related pubchem assays (depositor defined):AID1430, AID1632, AID2516, AID2560, AID2579, AID2600, AID449725, AID492951]; assay type: functional
T4 sequence (Q38C41 whole entry): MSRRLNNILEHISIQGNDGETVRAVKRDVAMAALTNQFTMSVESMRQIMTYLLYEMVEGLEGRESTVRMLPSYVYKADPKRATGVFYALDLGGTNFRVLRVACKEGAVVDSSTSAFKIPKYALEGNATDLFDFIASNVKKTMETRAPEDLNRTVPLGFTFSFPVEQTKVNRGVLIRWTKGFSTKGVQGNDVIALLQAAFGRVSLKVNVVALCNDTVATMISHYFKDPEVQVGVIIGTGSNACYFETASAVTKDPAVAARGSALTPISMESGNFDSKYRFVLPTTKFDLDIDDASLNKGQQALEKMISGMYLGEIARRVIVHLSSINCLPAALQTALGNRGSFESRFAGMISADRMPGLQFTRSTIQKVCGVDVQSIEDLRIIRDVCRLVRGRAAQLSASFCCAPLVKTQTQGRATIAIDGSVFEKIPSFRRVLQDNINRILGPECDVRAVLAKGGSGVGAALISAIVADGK

[9] = target: Glucose-6-phosphate 1-dehydrogenase (Homo sapiens, UniProt P11413); test: inhibition of Homo sapiens G6PD, dose series – biochemical, fluorescence, selectivity assay for P. falciparum G6PD inhibitor project, dose response (AID 504792); assay type: functional
[10] = viability loss in HeLa cells – cytotoxicity control for MgcRacGAP inhibitor project, dose response (AID 624300); assay type: functional
[11] = target: T5, Rac GTPase-activating protein 1 (Homo sapiens, UniProt Q9H0H5); test: blockers of MgcRacGAP-driven Rac1 GTP hydrolysis – biochemical, ADP Hunter fluorescence, primary and confirmatory, confirmation (AID 624330); assay type: functional
T5 sequence (Q9H0H5 whole entry): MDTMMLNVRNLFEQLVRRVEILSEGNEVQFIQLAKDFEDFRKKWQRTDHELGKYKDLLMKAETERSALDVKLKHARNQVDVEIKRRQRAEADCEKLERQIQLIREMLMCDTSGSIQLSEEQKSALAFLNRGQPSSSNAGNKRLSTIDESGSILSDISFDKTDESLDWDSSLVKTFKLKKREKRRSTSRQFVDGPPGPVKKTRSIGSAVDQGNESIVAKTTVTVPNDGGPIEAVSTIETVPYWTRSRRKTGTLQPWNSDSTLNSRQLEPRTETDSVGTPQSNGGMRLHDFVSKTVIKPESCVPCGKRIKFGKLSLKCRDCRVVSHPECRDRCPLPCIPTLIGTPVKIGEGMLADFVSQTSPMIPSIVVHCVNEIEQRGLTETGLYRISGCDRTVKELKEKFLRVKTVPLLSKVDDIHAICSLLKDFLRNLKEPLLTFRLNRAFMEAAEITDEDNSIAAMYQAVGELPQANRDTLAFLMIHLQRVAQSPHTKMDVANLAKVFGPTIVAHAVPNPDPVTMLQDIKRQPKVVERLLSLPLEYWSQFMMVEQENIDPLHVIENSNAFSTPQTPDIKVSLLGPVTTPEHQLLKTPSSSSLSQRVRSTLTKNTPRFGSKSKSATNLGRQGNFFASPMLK

Large T antigen = Large T antigen (Simian virus 40, UniProt P03070); assay type: functional, Betapolyomavirus macacae;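 also: Confirmatory-stage PubChem screen for compounds that inhibit SV40 T antigen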
Chain of Large T antigen (P03070 whole entry): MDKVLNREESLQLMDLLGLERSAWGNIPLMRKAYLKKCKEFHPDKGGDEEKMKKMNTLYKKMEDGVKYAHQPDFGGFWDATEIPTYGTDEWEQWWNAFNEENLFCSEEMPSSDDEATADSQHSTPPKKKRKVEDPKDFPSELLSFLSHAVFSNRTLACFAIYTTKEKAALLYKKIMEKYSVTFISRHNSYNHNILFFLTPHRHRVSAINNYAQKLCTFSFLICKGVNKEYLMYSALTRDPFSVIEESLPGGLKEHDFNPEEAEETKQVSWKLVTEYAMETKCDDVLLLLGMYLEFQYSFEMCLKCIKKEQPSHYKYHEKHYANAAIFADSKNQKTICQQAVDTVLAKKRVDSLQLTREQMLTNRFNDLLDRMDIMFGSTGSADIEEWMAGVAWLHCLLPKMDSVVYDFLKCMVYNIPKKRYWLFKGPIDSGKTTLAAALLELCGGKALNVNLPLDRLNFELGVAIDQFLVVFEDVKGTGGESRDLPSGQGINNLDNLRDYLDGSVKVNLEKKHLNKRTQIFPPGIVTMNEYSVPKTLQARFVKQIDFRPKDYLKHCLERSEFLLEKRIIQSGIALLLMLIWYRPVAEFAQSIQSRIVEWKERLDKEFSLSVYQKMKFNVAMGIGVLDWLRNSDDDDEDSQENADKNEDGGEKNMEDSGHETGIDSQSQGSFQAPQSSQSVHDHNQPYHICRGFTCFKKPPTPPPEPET

Chain of DNA dC->dU-editing enzyme APOBEC-3A (P31941 whole entry): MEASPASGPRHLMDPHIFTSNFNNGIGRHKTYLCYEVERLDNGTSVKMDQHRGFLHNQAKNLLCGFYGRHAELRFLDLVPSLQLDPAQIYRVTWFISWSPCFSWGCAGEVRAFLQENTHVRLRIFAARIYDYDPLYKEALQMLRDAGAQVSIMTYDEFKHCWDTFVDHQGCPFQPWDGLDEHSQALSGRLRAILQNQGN
Chain of DNA dC->dU-editing enzyme APOBEC-3G (Q9HC16 whole entry): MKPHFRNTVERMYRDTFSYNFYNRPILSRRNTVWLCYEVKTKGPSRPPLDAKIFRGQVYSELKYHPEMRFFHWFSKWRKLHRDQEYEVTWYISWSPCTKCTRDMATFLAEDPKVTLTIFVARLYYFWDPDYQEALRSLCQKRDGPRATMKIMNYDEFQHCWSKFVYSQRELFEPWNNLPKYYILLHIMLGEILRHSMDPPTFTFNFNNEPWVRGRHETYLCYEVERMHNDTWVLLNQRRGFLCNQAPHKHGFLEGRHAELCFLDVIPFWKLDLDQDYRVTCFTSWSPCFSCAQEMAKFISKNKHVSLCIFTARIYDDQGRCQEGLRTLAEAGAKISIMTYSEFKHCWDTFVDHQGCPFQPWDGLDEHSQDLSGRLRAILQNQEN
Chain of Glucose-6-phosphate 1-dehydrogenase (P11413 whole entry): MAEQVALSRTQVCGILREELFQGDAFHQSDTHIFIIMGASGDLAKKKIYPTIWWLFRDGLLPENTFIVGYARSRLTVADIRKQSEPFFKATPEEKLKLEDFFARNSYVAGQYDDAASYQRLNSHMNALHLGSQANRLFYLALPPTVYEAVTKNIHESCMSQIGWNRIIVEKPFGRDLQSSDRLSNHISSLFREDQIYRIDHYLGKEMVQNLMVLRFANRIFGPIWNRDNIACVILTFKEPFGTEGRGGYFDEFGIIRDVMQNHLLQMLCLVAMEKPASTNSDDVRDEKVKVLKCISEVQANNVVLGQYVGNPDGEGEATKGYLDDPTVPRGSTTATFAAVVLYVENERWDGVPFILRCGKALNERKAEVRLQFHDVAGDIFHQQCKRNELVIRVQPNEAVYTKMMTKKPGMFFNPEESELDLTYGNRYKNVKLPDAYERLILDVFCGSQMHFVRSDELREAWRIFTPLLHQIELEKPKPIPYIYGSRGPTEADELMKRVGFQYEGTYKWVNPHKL
Chain of G-protein coupled receptor 55 (Q9Y2T6 whole entry): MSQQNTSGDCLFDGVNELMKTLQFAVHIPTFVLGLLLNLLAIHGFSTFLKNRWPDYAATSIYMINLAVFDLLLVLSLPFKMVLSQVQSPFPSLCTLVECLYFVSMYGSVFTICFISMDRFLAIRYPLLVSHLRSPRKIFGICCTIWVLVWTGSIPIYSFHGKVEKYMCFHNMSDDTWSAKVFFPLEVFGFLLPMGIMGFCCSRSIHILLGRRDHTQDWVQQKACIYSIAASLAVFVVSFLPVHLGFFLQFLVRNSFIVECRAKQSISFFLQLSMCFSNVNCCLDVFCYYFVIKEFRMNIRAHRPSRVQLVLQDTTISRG
Chain of E3 ubiquitin-protein ligase XIAP (P98170 whole entry): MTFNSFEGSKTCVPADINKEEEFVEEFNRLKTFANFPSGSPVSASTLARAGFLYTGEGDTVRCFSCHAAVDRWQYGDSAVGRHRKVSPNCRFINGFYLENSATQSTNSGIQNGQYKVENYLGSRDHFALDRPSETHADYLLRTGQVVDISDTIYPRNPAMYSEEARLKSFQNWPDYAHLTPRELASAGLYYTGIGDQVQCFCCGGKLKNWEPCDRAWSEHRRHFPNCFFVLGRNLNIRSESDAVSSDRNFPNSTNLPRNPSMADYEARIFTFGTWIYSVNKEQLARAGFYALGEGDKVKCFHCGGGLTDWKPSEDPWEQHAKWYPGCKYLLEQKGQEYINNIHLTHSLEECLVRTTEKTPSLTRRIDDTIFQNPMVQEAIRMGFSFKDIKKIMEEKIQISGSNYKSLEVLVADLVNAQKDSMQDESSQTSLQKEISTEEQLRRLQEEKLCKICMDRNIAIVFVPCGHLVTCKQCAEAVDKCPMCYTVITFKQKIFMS
Chain of Luciferin 4-monooxygenase (P08659 whole entry): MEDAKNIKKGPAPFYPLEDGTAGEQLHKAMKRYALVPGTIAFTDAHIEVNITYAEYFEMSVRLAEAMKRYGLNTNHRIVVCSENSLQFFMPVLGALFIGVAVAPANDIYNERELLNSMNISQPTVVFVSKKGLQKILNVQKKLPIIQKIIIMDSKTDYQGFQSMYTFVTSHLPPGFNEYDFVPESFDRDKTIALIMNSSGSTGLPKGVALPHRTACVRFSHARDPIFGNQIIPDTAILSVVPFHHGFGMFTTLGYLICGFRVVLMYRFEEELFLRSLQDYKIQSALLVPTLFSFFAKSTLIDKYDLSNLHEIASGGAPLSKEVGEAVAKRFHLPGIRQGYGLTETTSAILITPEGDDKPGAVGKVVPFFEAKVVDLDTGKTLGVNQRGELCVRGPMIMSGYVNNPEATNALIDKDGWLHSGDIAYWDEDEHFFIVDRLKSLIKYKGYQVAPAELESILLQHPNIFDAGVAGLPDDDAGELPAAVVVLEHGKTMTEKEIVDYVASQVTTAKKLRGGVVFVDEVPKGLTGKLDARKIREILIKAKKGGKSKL

With `O=c1[nH]c(-c2ccc(F)cc2)nc2c1sc(=S)n2-c1ccccc1` the IC50 [1] was > 20 µM (inactive).

With `O=C(NCc1ccco1)c1nn2c(C(F)(F)F)cc(-c3cccs3)nc2c1Br` the EC50 [2] was > 112 µM (not active), the IC50 (Estrogen receptor) was 36.9 µM (not active) and the EC50 [3] was > 112 µM (not active). The EC50 [4] was > 32 µM (inactive).

With `CCOC(=O)CSc1nnc(S)s1` the IC50 [5] was > 100 µM (inactive) and the IC50 [6] was 15 µM (active).

In the case of `CCOc1ccc(NC(=O)Cn2c(=O)n(CCCC(=O)NC3CCN(Cc4ccccc4)CC3)c(=O)c3ccccc32)cc1`, the IC50 (Bcl-2-related protein A1) is reported as > 20 µM (inactive), the IC50 [7] is reported as 5.27 µM (active) and the IC50 [8] is reported as 5.19 µM (active).

For `CN(C)CCCN(C(=O)c1ccc(S(=O)(=O)N2CCCCC2)cc1)c1nc2cc3c(cc2s1)OCO3`, the IC50 (Bcl-2-related protein A1) was > 20 µM (inactive), the IC50 [7] was 12.7 µM (active) and the IC50 [8] was > 20 µM (inactive).

For `O=c1c2ccccc2sn1-c1ccc(Cl)cc1Cl`, the IC50 (Hexokinase) was 5.03 µM (active), the IC50 [9] was 17 µM (active) and the CC50 [10] was 74.7 µM (active). The IC50 [11] was 31.8 µM (active).

In the case of `COc1ccc(C(=O)Nc2cc(C(F)(F)F)ccc2C(=O)O)cc1`, the IC50 (Hexokinase) is reported as 17 µM (active).

In the case of `O=c1c2ccccc2sn1-c1cccc(F)c1`, the IC50 (Hexokinase) is reported as 1.82 µM (active).

With `Sc1nnc(-c2ccccn2)n1/N=C/c1cccc(Cl)c1` the IC50 [5] was > 100 µM (inactive) and the IC50 [6] was 2.81 µM (active).

In the case of `C/N=c1/nc(-c2ccccc2)n(-c2ccccc2)s1`, the IC50 (Large T antigen) is reported as 29.4 µM (active), the IC50 [5] is reported as > 100 µM (inactive) and the IC50 [9] is reported as 10.1 µM (active). The IC50 [6] was 15.9 µM (active).

From ChEMBL document CHEMBL1201862, “PubChem BioAssay data set” (2004)
